Results from PubChem BioAssay (NCI).
Values joined by “and” are separate entries in the source; they are usually repeats but may differ in a detail not shown here. Identical values can stand only once.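 In this assay, cells in 96-well plates receive the compound at five concentrations for 48 hours. Endpoints are linearly interpolated between the surrounding concentrations. At the GI50, growth is halved. TGI: total growth inhibition.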

What was measured:
Assay in all cases: inhibition of tumour cell growth, NCI panel, 48 h
[1] = tested on: OVCAR-3 ovarian
[2] = tested on: UO-31 renal
[3] = tested on: SK-MEL-28 melanoma
[4] = tested on: HT29 colon
[5] = tested on: K-562 leukemia
[6] = tested on: HOP-62 NSCLC
[7] = tested on: SK-MEL-2 melanoma
[8] = tested on: OVCAR-5 ovarian
[9] = tested on: LOX IMVI melanoma
[10] = tested on: SF-268 CNS

Row | SMILES | TGI [1] | TGI [2] | TGI [3] | TGI [4] | TGI [5] | TGI [6] | TGI [7] | TGI [8] | TGI [9] | TGI [10] | GI50 [1] | GI50 [2] | GI50 [3] | GI50 [4] | GI50 [5] | GI50 [6] | GI50 [7] | GI50 [8] | GI50 [9] | GI50 [10]
1 | CCOC(=O)C1(C#N)C(c2ccccc2)CC(O)(c2ccc(OC)cc2)C(C(=O)c2ccc(OC)cc2)C1c1ccccc1 (stereo not given) | > 100 µM | > 100 µM | > 100 µM | > 100 µM | > 100 µM | > 100 µM | > 100 µM | > 100 µM | > 100 µM | > 100 µM |  |  |  |  |  |  |  |  |  | 
2 | CCN(CC)c1ccc2c(c1)OC(N)=C(C#N)C2c1cc(OC)c2c(c1)OCO2 (stereo not given) | 0.0466 µM | > 43.3 µM | 22.7 µM | 0.309 µM | 4.32 µM | 20.3 µM | 13.8 µM | 30.1 µM | 3.86 µM | 3.03 µM | 0.0168 µM | 0.403 µM | 0.0345 µM | 0.0317 µM | < 0.0175 µM | 0.0602 µM | 0.0476 µM | 0.0639 µM | 0.0577 µM | 0.06 µM
3 | O=[N+]([O-])c1ccc(C2=Nn3cnnc3SC2)o1 | 31.7 µM | 36.5 µM | 31.1 µM | 28.2 µM | 42.3 µM | 89.5 µM | 50.7 µM | 36.8 µM | 5.99 µM | 58.2 µM |  |  |  |  |  |  |  |  |  | 
4 | Cc1cc(I)cc(CN(C)CCCN2CCCCCCC2)c1O | 29.1 µM | 26.2 µM | 31.2 µM | 21.1 µM | 23.8 µM | 32.2 µM | 41.7 µM | 41.5 µM | 30.9 µM | 31.3 µM | 14.8 µM | 11.8 µM | 15.3 µM | 6.26 µM | 2.46 µM | 16.4 µM | 21.8 µM | 18.8 µM | 16.2 µM | 14.9 µM
5 | COc1cc(C(Cc2ccccc2)NC(C)=O)oc(=O)c1 (stereo not given) | > 100 µM | > 100 µM | > 100 µM | > 100 µM | > 100 µM | > 100 µM | > 100 µM | > 100 µM | > 100 µM | > 100 µM |  |  |  |  |  |  |  |  |  | 
6 | Cc1c([N+](=O)[O-])ccc2c(NCCCN(C)C)ccnc12 | 50.8 µM | 30.5 µM | 54.5 µM | 34.1 µM | > 100 µM | > 100 µM | 31.8 µM | 92.5 µM | 30.9 µM | > 100 µM |  |  |  |  |  |  |  |  |  | 
7 | CCN(CC)CCCC(CNc1ccnc2cc(Cl)ccc12)c1ccc(Cl)cc1 (stereo not given) | 7.73 µM and 9.83 µM | 2.24 µM and 2.31 µM | 3.3 µM and 1.09 µM | 2.35 µM and 1.28 µM | 0.994 µM and 0.603 µM | 4.23 µM and 3.73 µM | 4.07 µM and 3.09 µM | 8.25 µM and 6.25 µM | 2.13 µM and 1.36 µM | 3.31 µM and 4.55 µM | 2.46 µM and 2.38 µM | 0.891 µM and 0.974 µM | 1.66 µM and 0.537 µM | 0.484 µM and 0.304 µM | 0.289 µM and 0.227 µM | 1.83 µM and 1.64 µM | 2.1 µM and 1.59 µM | 2.53 µM and 2.16 µM | 0.764 µM and 0.353 µM | 1.56 µM and 1.71 µM
8 | CC(O)CCC(=O)c1ccoc1 (stereo not given) | 9960 µM | 9120 µM | > 8380 µM | > 10000 µM | > 10000 µM | > 10000 µM | > 8110 µM | > 10000 µM | > 10000 µM | > 10000 µM |  |  |  |  |  |  |  |  |  | 
9 | COC(=O)C(=Cc1cc(OC)ccc1OC)C(=O)OC | 50.6 µM | 50.9 µM | 82.9 µM | 56.5 µM | 53.6 µM | 64.1 µM | 50.1 µM | 61.5 µM | 50.1 µM | > 100 µM |  |  |  |  |  |  |  |  |  | 
10 | O=c1[nH]c(=O)n(C2OC(CO)C(O)C2O)cc1NN=NCc1ccccc1 (stereo not given) | > 100 µM | > 100 µM | > 100 µM | > 100 µM | > 100 µM | > 100 µM | > 100 µM | > 100 µM | > 100 µM | > 100 µM |  |  |  |  |  |  |  |  |  | 
11 | Cn1nc(N)c2cc([C@@H]3Nc4ccc5[nH]ncc5c4[C@H]4C5CCC(C5)[C@@H]34)ccc21 (stereo not given in full) | 4.07 µM | 40.8 µM | 29.1 µM | > 38.1 µM | > 100 µM | 25.5 µM | 39.4 µM | 23.4 µM | 15.7 µM | 41 µM | 0.337 µM | 0.831 µM | 4.35 µM | 0.387 µM | 0.324 µM | 0.603 µM | 11.1 µM | 1.48 µM | 0.515 µM | 1.32 µM
12 | Cc1ccc(C)c(C2=C(c3cn(C)c4ccccc34)C(=O)NC2=O)c1 | > 25 µM | > 25 µM | > 25 µM | > 25 µM | > 25 µM | > 25 µM | > 25 µM | > 25 µM | > 25 µM | > 25 µM | 15.1 µM | 13.4 µM | > 25 µM | > 16 µM | 15.1 µM | 12.1 µM | > 25 µM | > 25 µM | > 19.5 µM | > 25 µM
13 | Clc1nc2ccccc2nc1CI | 9.66 µM | 5.17 µM | 23 µM | 13.5 µM | > 32.5 µM | 30.6 µM | 19.4 µM | 22 µM | 3.34 µM | 17.9 µM | 5.1 µM | 2.05 µM | 9.31 µM | 3.93 µM | 1.74 µM | 13.4 µM | 5.43 µM | 8.26 µM | 1.03 µM | 5.23 µM
14 | CC(=O)c1cccc(NC(=O)C(=O)NNc2n[nH]c(=S)n2N)c1 | 15.9 µM | 22.6 µM | 18.5 µM | 31.8 µM | 27.6 µM | 29.3 µM | 13.1 µM | 33.1 µM | 4.57 µM | 27.7 µM |  |  |  |  |  |  |  |  |  | 
15 | CCN(CC)CC1CCCCCCCCCCC1=O (stereo not given) | > 100 µM | > 100 µM | > 100 µM | > 100 µM | > 100 µM | > 100 µM | > 100 µM | > 100 µM | > 100 µM | > 100 µM |  |  |  |  |  |  |  |  |  | 
16 | [N-]=[N+]=NC12CC3C4CC5CC3C(C1)C(C5)C4C2 | > 100 µM | > 100 µM | > 100 µM | > 100 µM | > 100 µM | > 100 µM | > 100 µM | > 100 µM | > 100 µM | > 100 µM |  |  |  |  |  |  |  |  |  | 
17 | CNC(=O)N(C)N=NCCCl | > 100 µM | > 100 µM | > 100 µM | > 100 µM | > 100 µM | > 100 µM | > 100 µM | > 100 µM | > 100 µM | > 100 µM |  |  |  |  |  |  |  |  |  | 
18 | CN(C)c1ccc(C(C=C2c3ccccc3Sc3ccccc32)=C(C#N)C#N)cc1 | > 100 µM | > 100 µM | > 100 µM | > 100 µM | > 100 µM | > 100 µM | > 100 µM | > 100 µM | > 100 µM | > 100 µM |  |  |  |  |  |  |  |  |  | 
